Patent US9717796B1, “Heat sterilizeable, premixed, ready to use dexmedetomidine solution packaged in a flexible plastic container” (SLYPHARMA, LLC, priority 2016, dated 2017)
Like-named read-outs stand apart in the source and are kept apart here.

Assays:
[1] = cited from earlier work
[2] = DEHP used as plasticizer in PVC bags; cited from earlier work
[3] = remark: listed apart in the source
Description: A composition was prepared containing 4.0 μg Dexmedetomidine and 50 mg dextrose to adjust tonicity with sufficient water to bring the total volume to 1 mL.

Compound: Cc1cccc([C@H](C)c2cnc[nH]2)c1C [dexmedetomidine, (S)-4-[1-(2,3-dimethylphenyl)ethyl]-3H-imidazole]
- potency loss ([1]; CR3 elastomer copolyester ether bags and PVC bags, autoclaving): 20%
- drug recovered in MeOH rinse of emptied bags ([1]; CR3 elastomer copolyester ether bags): Nearly all
- drug recovered in MeOH rinse of emptied bags ([1]; PVC bags): 1%
- total percent of impurities ([1]; autoclaved premixed composition in PVC and CR3 bags): less than 20%
- drug loss ([1]; formulation with a buffer system, plastic bags): ~10%
- dexmedetomidine lost through adsorption ([1]; premixed solution in plastic materials): up to 20%
- dexmedetomidine retained after autoclaving in moist steam (5.5 mg/mL sodium chloride and 28 gram/mL sodium acetate and 320 mg/mL glacial acetic acid as buffer): 90.1%
- retention of the dexmedetomidine after autoclaving in moist steam (buffer (28 g/mL sodium acetate and 320 mg/mL glacial acetic acid) with dextrose as tonicity adjusting agent, Nexcel bag): 99.4%
- retention of the dexmedetomidine after autoclaving in moist steam (buffer (28 g/mL sodium acetate and 320 mg/mL glacial acetic acid) with sucrose as tonicity adjusting agent, Nexcel bag): 99.0%
- dexmedetomidine retained after autoclaving in moist steam (solution comprising 9 mg/mL sodium chloride, Nexcel bag): 93%
- solubility in DEHP [2]: soluble
- time the solution will be stable at room temperature ([3]; Example 1 solution (dextrose) in Nexcel bag, extrapolated from the accelerated test): about 24 months
- adsorption or absorption by the ethylene-vinyl acetate copolymer inner-most bag layer ([3]; Example 1 solution, Nexcel bag, storage tests): not adsorbed or absorbed
